Laboratory results taken from patent publication US11357811B2, “Methods to isolate anti-microbials from fruit or seed extracts” (priority 2012, dated 2022).

How the values were obtained:
poliovirus 1 = type: cell-based
herpes simplex virus-1 = type: cell-based
vaccinia virus = type: cell-based
[1] = tested on: human parainfluenza 3 virus (HPIV3); assay: antiviral testing against human parainfluenza 3 virus; type: cell-based; conditions: commercially available preparation; 100 ng/mL-100 μg/mL
influenza A/H1N1 = type: cell-based
[2] = at 1-100 μg/mL

Row | Compound | anti-viral activity against poliovirus Sabin-1 (poliovirus 1) | anti-viral activity against herpes simplex virus-1 (herpes simplex virus-1) | anti-viral activity against vaccinia virus (vaccinia virus) | anti-viral activity against parainfluenza virus-3 [1] | anti-viral activity against influenza A/California/July/2009 (H1N1) (influenza A/H1N1) | anti-viral activity against vaccinia virus (in words) (vaccinia virus) | toxicity [2] | influenza A/H1N1 inhibition by hemagglutination read-out (influenza A/H1N1)
1 | O=c1c(O[C@@H]2O[C@H](CO)[C@H](O)[C@H](O)[C@H]2O)c(-c2cc(O)c(O)c(O)c2)oc2cc(O)cc(O)c12 [myricetin-beta-3-galactoside] | None of the compounds showed anti-viral activity | None of the compounds showed anti-viral activity | None of the compounds showed anti-viral activity | None of the compounds showed anti-viral activity | None of the compounds showed anti-viral activity |  |  | 
2 | O=c1c(O[C@@H]2O[C@H](CO)[C@H](O)[C@H](O)[C@H]2O)c(-c2ccc(O)c(O)c2)oc2cc(O)cc(O)c12 [quercetin-β-3-galactoside] |  |  |  |  |  | core) was found to be inactive. |  | 
3 | CC(C)[C@]12O[C@H]1[C@@H]1O[C@]13[C@]1(O[C@H]1C[C@H]1C4=C(CC[C@@]13C)C(=O)OC4)[C@@H]2O [triptolide] | None of the compounds showed anti-viral activity | None of the compounds showed anti-viral activity | None of the compounds showed anti-viral activity | None of the compounds showed anti-viral activity | None of the compounds showed anti-viral activity |  | toxic | 
4 | COc1cc(C=CC(=O)O)cc(OC)c1O (stereo in doubt) [sinapinic acid] | None of the compounds showed anti-viral activity | None of the compounds showed anti-viral activity | None of the compounds showed anti-viral activity | None of the compounds showed anti-viral activity | None of the compounds showed anti-viral activity |  |  | 
5 | CCOC(=O)C1=C[C@@H](OC(CC)CC)[C@H](NC(C)=O)[C@@H](N)C1 [Tamiflu] |  |  |  |  |  |  |  | effective viral inhibition
6 | Oc1cc(O)c2c(c1)O[C@@]1(c3ccc(O)c(O)c3)Oc3cc(O)c4c(c3[C@@H]2[C@H]1O)O[C@H](c1ccc(O)c(O)c1)[C@H](O)C4 [procyanidin A2] | None of the compounds showed anti-viral activity | None of the compounds showed anti-viral activity | None of the compounds showed anti-viral activity | None of the compounds showed anti-viral activity | None of the compounds showed anti-viral activity |  |  | 
